Measured values reported in patent US20100278789A1, “METHODS OF GENERATING EXPANDED AND RE-DIFFERENTIATED ADULT ISLET BETA CELLS CAPABLE OF PRODUCING INSULIN” (priority 2007, published 2010).

Legend:
eGFP+ human islet cells = assay: Insulin immunostaining of eGFP+ islet cells incubated with diazoxide after viral infection; assay type: cell-based; design: dose or concentration left out as unconfirmed; conditions: diazoxide following viral infection, days 5-6 of culture
[1] = system: Beta cell derived labeled cells at P5; assay: Insulin expression (RT-PCR) in beta cell derived labeled cells treated with gamma-secretase inhibitor; assay type: cell-based, human; conditions: 300 nM, 4 days, vs untreated or DMSO
Method: Beta cell derived labeled cells at P5 treated for 4 days with 300 nM gamma-secretase inhibitor (S,S)-2-[2-(3,5-difluorophenyl)acetylamino]-N-(5-methyl-6-oxo-6,7-dihydro-5H-dibenzo [b,d]azepin-7-yl)propionamide (DBZ). Control cells were either untreated, or treated with DMSO (solvent). Medium with compound was changed every 48 hours.
RT-PCR analyses: As described for Example 1.

[2] = system: cultured human islet cells; assay: Immunoblotting for cleaved PARP (apoptosis) in islet cells; assay type: cell-based
Method: (§1) HES1 inhibition and lineage tracing: HES1 shRNA ([…])—SEQ ID NO: 7 and a non-target shRNA, cloned in pLKO.1 lentiviral vector, were obtained from the RNAi Consortium (Sigma-Aldrich). Virus was produced in 293T cells following cotransfection with the pCMVdR8.91 and pMD2.G packaging plasmids. The culture medium was harvested 48 hours later. Islet cells cultured for 1-2 days were washed with PBS and infected at MOI 2.5:1 in CMRL 1066 medium containing 8 μg/ml polybrene overnight. The medium was then replaced with regular culture medium. Four days after infection, the cells were selected for puromycin resistance (1 μg/ml) for 3 days. Two weeks after infection the cells were harvested for further analysis. Lineage tracing was performed using the RIP-Cre and a pTrip CMV-loxP-DsRed2-loxP-eGFP viruses as described herein below. Briefly, islet cells cultured for 1-2 days were infected with a 1:1:1 mixture of the 3 viruses (shRNA+RIP-Cre+pTrip CMV-loxP-DsRed2-loxP-eGFP) at a total MOI 4:1. Selection and further analysis were carried out as above.
(§2) Immunoblotting: Total cellular protein was extracted in 0.5% NP40 containing a protease inhibitor cocktail (Roche). Protein concentration was determined by the BCA method (Pierce, Rockford, Ill.). […] Loading was monitored using goat-anti-beta-actin (Santa Cruz, 1:1000). […]

HES1 [3] = assay: Screening of 4 HES1 shRNA sequences in 293T cells, HES1 immunoblotting; assay type: cell-based
Method: Immunoblotting: Total cellular protein was extracted in 0.5% NP40 containing a protease inhibitor cocktail (Roche). Protein concentration was determined by the BCA method (Pierce, Rockford, Ill.). 70 μg protein were separated on 12% sodium dodecyl sulphate-polyacrylamide gels and electroblotted onto PDF membranes. The membranes were incubated with rabbit-anti-HES1 (1:1000) or rabbit-anti-PARP (Cell Signaling, 1:1000). Loading was monitored using goat-anti-beta-actin (Santa Cruz, 1:1000). The bound antibody was visualized with the appropriate horseradish peroxidase-conjugated anti-IgG (Jackson) and SuperSignal West Pico Chemiluminescent Substrate (Pierce). Cells treated with 1 μm staurosporine for 6 hours were used as positive control for the PARP blot.
Inhibition of HES1 expression prevents induction of beta-cell replication: To further correlate the induction of beta-cell replication with HES1 upregulation, HES1 induction during the initial weeks of culture was inhibited using shRNA. […] Isolated human islets were dissociated, and the cells were infected with a lentivirus encoding HES1 shRNA before culture under standard conditions. Selection for drug resistance allowed elimination of uninfected cells. Cells infected with a non-target shRNA lentivirus and selected under similar conditions served as control. […]

[4] = system: sorted eGFP+ cells derived from beta cells; assay: HES1 shRNA in sorted eGFP+ cells expanded 7 population doublings, qRT-PCR and morphology; assay type: cell-based, human
Method: Virus was produced in 293T cells following cotransfection with the pCMVdR8.91 and pMD2.G packaging plasmids. The culture medium was harvested 48 hours later. […] They were then infected with HES1 or nontarget shRNA viruses, and 4 days later trypsinized and shifted to serum free medium (SFM). RNA was extracted following 4 more days and analyzed by qRT-PCR.
RNA analyses: As described for Example 1.

[5] = system: cultured human islet cells; assay: qPCR analysis of RNA from islet cells 14 days after HES1 shRNA infection; assay type: cell-based; conditions: 14 days after infection
Method: as §1
RNA analyses: Total RNA was extracted using High Pure RNA isolation kit (Roche). cDNA was synthesized using SuperScript III (Invitrogen). qPCR was performed using a Prism 7300 ABI Real Time PCR System (Applied Biosystems). Relative quantitative analysis was performed according to the comparative CT method by using the arithmetic formula 2̂^−(ΔΔct). The cDNA levels were normalized to human ribosomal protein P0 (RPLP0) cDNA.

HES1 [6] = assay: Immunoblotting for HES1 in islet cells infected at culture initiation with HES1 shRNA virus; assay type: cell-based, human; conditions: islet cells infected after 1-2 days of culture, analysed 14 days after infection
Method: as §1, §2

[7] = system: cultured human islet cells; assay: Insulin immunostaining of islet cells and eGFP+ cells after HES1 shRNA infection; assay type: cell-based
Method: as §1
(§3) Immunofluorescence: Cells were plated in 24-well plates on sterilized coverslips and fixed in 4% paraformaldehyde. Cells were permeabilized with 0.25% NP40 for 10 minutes and blocked for 10 minutes at room temperature in 1% bovine serum albumin, 10% FBS, and 0.2% saponin. […]

[8] = system: dedifferentiated human islet cells expanded in culture; assay: Redifferentiation of dedifferentiated expanded human islet cells by HES1 shRNA (immunoblotting, RT-PCR, insulin ELISA, morphology); assay type: cell-based
Method: Human islet cells were cultured for 4-5 weeks as described for Example 1. They were then infected with lentiviruses expressing HES1 (SEQ ID NO: 7) or nontarget shRNAs. Nine days following infection the cells were analyzed as described for Example 1. Primers used for RT-PCR analysis are described in Table 1, herein above, […]

[9] = system: cultured human islet cells; assay: Replication of cultured islet cells (BrdU incorporation, Ki67 staining) after HES1 shRNA infection; assay type: cell-based; conditions: 14 days after infection
Method: as §1, §3

[10] = cells cultured 4-5 weeks, 9 days after infection, immunoblotting

CC1=NS(=O)(=O)c2cc(Cl)ccc2N1 [diazoxide]
fraction of eGFP+ cells that were insulin-positive (eGFP+ human islet cells): 84.8±5.8%

C[C@H](NC(=O)Cc1cc(F)cc(F)c1)C(=O)N[C@@H]1C(=O)N(C)c2ccccc2-c2ccccc21 [gamma secretase inhibitor, (S,S)-2-[2-(3,5-difluorophenyl)acetylamino]-N-(5-methyl-6-oxo-6,7-dihydro-5H-dibenzo [b,d]azepin-7-yl)propionamide]
insulin expression [1]: increase

CN[C@@H]1C[C@H]2O[C@@](C)([C@@H]1OC)n1c3ccccc3c3c4c(c5c6ccccc6n2c5c31)C(=O)NC4 [staurosporin, staurosporine, reference compound]
PARP cleavage, immunoblotting (positive control) ([2]; uninfected cells, 1 μm staurosporine for 6 hours): cleaved PARP

TGGCCAGTTTGCTTTCCTCAT (chemistry not given here) [HES1 shRNA, HES1 shRNA cloned in pLKO.1 lentiviral vector, obtained from the RNAi Consortium (Sigma-Aldrich)]
efficiency among 4 HES1 shRNA sequences, based on reduction in HES1 protein levels (HES1 [3]): most efficient | upregulation of transcripts encoding insulin, PDX1, NEUROD1, IAPP, and PC1 ([4]; eGFP+ vs eGFP− cells, qRT-PCR): occurred preferentially in eGFP^+ cells | induction of beta-cell transcripts, combination of SFM with HES1 shRNA ([4]; shRNA infection, 4 days later shifted to SFM, RNA after 4 more days): pronounced additive effect | morphological changes in response to HES1 shRNA, eGFP+ compared with eGFP− cells ([4]; sorted cells): much more pronounced in eGFP^+ cells | insulin transcripts, lower compared with primary islets [5]: 20 fold | levels of NOTCH transcripts [5]: did not affect | levels of PDX1 and NEUROD1 transcripts relative to primary islets [5]: comparable to those in primary islets | insulin transcripts, higher compared with cells infected with control virus ([5]; p<0.01): 5.7 fold | p57 transcripts, higher than in cells infected with control virus ([5]; p<0.04): 5.7 fold | PDX1 transcript levels, higher than control virus ([5]; p<0.05): 5.6 fold | NEUROD1 transcript levels, higher than control virus ([5]; p<5.45×10^−5): 3.7 fold | HES1 protein levels, lower compared with cells infected with the control virus (HES1 [6]): up to 6 × | cell apoptosis, immunoblotting for cleaved PARP ([2]; HES1 shRNA virus vs non-target virus, 14 days after infection): did not correlate with an increase in cell apoptosis | fraction of insulin-positive cells among eGFP+ cells, higher [7]: 3 fold | number of insulin-positive cells, higher than control virus ([7]; p<0.016): 4 fold | insulin expression by insulin ELISA and immunostaining ([8]; 9 days after infection): increase | NEUROD1 transcripts ([8]; 9 days after infection, RT-PCR): significant increase | PDX1 transcripts ([8]; 9 days after infection, RT-PCR): significant increase | insulin transcripts ([8]; 9 days after infection, RT-PCR): significant increase | p57, RNA analysis ([8]; 9 days after infection, RT-PCR): increase | cellular HES1 protein levels [8, 10]: decrease | p57 levels (protein) [8, 10]: increase | morphological change ([8]; cells expressing HES1 shRNA): tended to form clusters | replication rate, Ki67 staining in eGFP+ cells derived from beta cells [9]: lower replication rate | cell proliferation, staining for BrdU incorporation ([9]; compared with control vector): diminished cell proliferation
